# Source: PubChem BioAssay (NCI)
#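 GI50 marks 50% less growth. Definition used: TGI = concentration required for complete inhibition of growth.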
# Experiments:
# Test in all cases: DTP human tumour cell line panel, 384-well format
# [1] = tested on: U251 glioblastoma
# [2] = tested on: HOP-92 NSCLC
# [3] = tested on: SF-295 CNS
# [4] = tested on: SN12C renal
# [5] = tested on: HOP-62 NSCLC
# [6] = tested on: NCI/ADR-RES ovarian
# [7] = tested on: TK-10 renal
# [8] = tested on: HCC-2998 colon
# [9] = tested on: MCF7 breast
# [10] = tested on: OVCAR-8 ovarian
# [11] = tested on: SK-MEL-5 melanoma
# [12] = tested on: SF-268 CNS
# [13] = tested on: OVCAR-3 ovarian
# [14] = tested on: HL-60(TB) leukemia
# [15] = tested on: NCI-H322M lung
# [16] = tested on: CAKI-1 renal
# [17] = tested on: M14 melanoma
# [18] = tested on: K-562 leukemia
# [19] = tested on: EKVX NSCLC
# [20] = tested on: MDA-MB-231 breast
# [21] = tested on: NCI-H522 lung
# [22] = tested on: BT-549 breast
# [23] = tested on: 786-0 renal
# [24] = tested on: SR leukemia
# [25] = tested on: ACHN renal
# [26] = tested on: NCI-H226 lung
# [27] = tested on: SW-620 colon
# [28] = tested on: SNB-19 CNS
# [29] = tested on: HCT-15 colon
# [30] = tested on: RPMI-8226 leukemia
# [31] = tested on: SNB-75 CNS
# [32] = tested on: UACC-257 melanoma
# [33] = tested on: OVCAR-5 ovarian
# [34] = tested on: SK-MEL-28 melanoma
# [35] = tested on: RXF 393 renal
# [36] = tested on: NCI-H23 lung
# [37] = tested on: NCI-H460 NSCLC
# [38] = tested on: HT29 colon
# [39] = tested on: IGROV1 ovarian
# [40] = tested on: LOX IMVI melanoma
# [41] = tested on: CCRF-CEM leukemia
# [42] = tested on: COLO 205 colon
# [43] = tested on: MDA-MB-435 melanoma
# [44] = tested on: A549 NSCLC
# [45] = tested on: SK-OV-3 ovarian
# [46] = tested on: MALME-3M melanoma
# [47] = tested on: UO-31 renal
# [48] = tested on: OVCAR-4 ovarian
# [49] = tested on: PC-3 prostate
# [50] = tested on: KM12 colon
# [51] = tested on: SF-539 CNS
# [52] = tested on: T-47D breast
# [53] = tested on: A498 renal
# [54] = tested on: UACC-62 melanoma
# [55] = tested on: MDA-MB-468 breast
# [56] = tested on: DU-145 prostate
# [57] = tested on: MOLT-4 leukemia
# [58] = tested on: HS 578T breast
smiles,measurement,setting,value
Cn1cc(-c2cnc3ccc4ccc(CS(=O)(=O)NCc5ccccn5)cc4c(=O)c3c2)cn1,GI50,[1],21.2 µM
same,TGI,[1],65.3 µM
same,GI50,[2],14.7 µM
same,TGI,[2],34.1 µM
same,GI50,[3],13.3 µM
same,TGI,[3],33.8 µM
same,GI50,[4],19.9 µM
same,TGI,[4],46.4 µM
same,GI50,[5],13 µM
same,TGI,[5],27.8 µM
same,GI50,[6],16.2 µM
same,TGI,[6],37.4 µM
same,GI50,[7],20.8 µM
same,TGI,[7],51.5 µM
same,GI50,[8],15 µM
same,TGI,[8],28.7 µM
same,GI50,[9],10 µM
same,TGI,[9],26.9 µM
same,GI50,[10],16.2 µM
same,TGI,[10],36.5 µM
same,GI50,[11],8.26 µM
same,TGI,[11],20.8 µM
same,GI50,[12],18.4 µM
same,TGI,[12],38.6 µM
same,GI50,[13],14 µM
same,TGI,[13],28.1 µM
same,GI50,[14],13.2 µM
same,TGI,[14],26 µM
same,GI50,[15],21.3 µM
same,TGI,[15],64.6 µM
same,GI50,[16],32.7 µM
same,TGI,[16],> 100 µM
same,GI50,[17],12.9 µM
same,TGI,[17],26.1 µM
same,GI50,[18],5.42 µM
same,TGI,[18],17.8 µM
same,GI50,[19],17.9 µM
same,TGI,[19],35.7 µM
same,GI50,[20],15.2 µM
same,TGI,[20],30.4 µM
same,GI50,[21],13.1 µM
same,TGI,[21],25.9 µM
same,GI50,[22],14.9 µM
same,TGI,[22],30.8 µM
same,GI50,[23],37.6 µM
same,TGI,[23],> 100 µM
same,GI50,[24],1.91 µM
same,TGI,[24],4.24 µM
same,GI50,[25],24.7 µM
same,TGI,[25],98.4 µM
same,GI50,[26],13.7 µM
same,TGI,[26],30.5 µM
same,GI50,[27],14 µM
same,TGI,[27],28.8 µM
same,GI50,[28],20.8 µM
same,TGI,[28],53.1 µM
same,GI50,[29],4.28 µM
same,TGI,[29],14.7 µM
same,GI50,[30],5.18 µM
same,TGI,[30],17.5 µM
same,GI50,[31],15.9 µM
same,TGI,[31],30.2 µM
same,GI50,[32],18.3 µM
same,TGI,[32],32.3 µM
same,GI50,[33],25.4 µM
same,TGI,[33],49.3 µM
same,GI50,[34],17 µM
same,TGI,[34],32 µM
same,GI50,[35],13.5 µM
same,TGI,[35],26.8 µM
same,GI50,[36],11.6 µM
same,TGI,[36],24.5 µM
same,GI50,[37],15.1 µM
same,TGI,[37],28.9 µM
same,GI50,[38],15.4 µM
same,TGI,[38],32.7 µM
same,GI50,[39],16.7 µM
same,TGI,[39],33 µM
same,GI50,[40],16.3 µM
same,TGI,[40],30.2 µM
same,GI50,[41],7.51 µM
same,TGI,[41],19.8 µM
same,GI50,[42],34.1 µM
same,TGI,[42],> 100 µM
same,GI50,[43],3.77 µM
same,TGI,[43],12.2 µM
same,GI50,[44],40.4 µM
same,TGI,[44],> 100 µM
same,GI50,[45],13.4 µM
same,TGI,[45],31.3 µM
same,GI50,[46],12.3 µM
same,TGI,[46],25.4 µM
same,GI50,[47],35.9 µM
same,TGI,[47],> 100 µM
same,GI50,[48],14.9 µM
same,TGI,[48],29.6 µM
same,GI50,[49],20.5 µM
same,TGI,[49],42.5 µM
same,GI50,[50],11.4 µM
same,TGI,[50],26.6 µM
same,GI50,[51],15.3 µM
same,TGI,[51],28.9 µM
same,GI50,[52],15.5 µM
same,TGI,[52],30.5 µM
same,GI50,[53],23.1 µM
same,TGI,[53],> 100 µM
same,GI50,[54],12 µM
same,TGI,[54],24.5 µM
same,GI50,[55],2.79 µM
same,TGI,[55],7.05 µM
same,GI50,[56],20 µM
same,TGI,[56],51.2 µM
same,GI50,[57],3.23 µM
same,TGI,[57],10.6 µM
same,GI50,[58],14.4 µM
same,TGI,[58],33.3 µM
